Measured values published in paper PMC4349456, “Automated genomic context analysis and experimental validation platform for discovery of prokaryote transcriptional regulator functions” (BMC Genomics, 2014).

Biological target: T1, Bxe_B3018 (MgxR)
T1 construct: GST-tagged (N-terminal, pGEX-KG / pGEX-T2), tag kept; expressed in Arctic Express cells; GSTrap and Superdex 200 purified
Experiment: fluorescence anisotropy, collapse of complex with fluorescein-labelled DNA operator
Parameters: species or system Paraburkholderia xenovorans
Conditions: apparent, from loss of DNA operator binding; 250 nM GST-Bxe_B3018, 1 nM DOS; pH 7.5, 30 °C, 1 mM MgCl2, 1 mM DTT

| Kd | Compound |
| --- | --- |
| 2.1 ± 0.2 mM | CC(=O)C=O [Mgx, methylglyoxal] |
| 2.1 ± 0.4 mM | CC(=O)CN [Aa, aminoacetone] |
| 2.6 ± 0.2 mM | CC(=O)CN(C)C [N,N-dimethylaminoacetone] |
